Laboratory results published in patent US8906925B2, “Pyrido[4,3-B]indoles containing rigid moieties” (Medivation Technologies, Inc., priority 2008, dated 2014).
Several values for one entry are separate records, joined by “and”; a condition that tells them apart may be missing. Identical values can stand only once. Like-named read-outs stand apart in the source and are kept apart here.

Experiments:
[1] = target: T1, human recombinant histamine H2 receptor (Homo sapiens, UniProt P25021); assay: Histamine H2 radioligand binding ([125I]Aminopotentidine); conditions: read-out: Histamine Binding (1 μM) H2, percent inhibition of specific binding, 1 μM
T1 construct: expressed in transfected cells; host or cells: Chinese hamster ovary (CHO) K1 cells
T1 sequence (P25021 whole entry): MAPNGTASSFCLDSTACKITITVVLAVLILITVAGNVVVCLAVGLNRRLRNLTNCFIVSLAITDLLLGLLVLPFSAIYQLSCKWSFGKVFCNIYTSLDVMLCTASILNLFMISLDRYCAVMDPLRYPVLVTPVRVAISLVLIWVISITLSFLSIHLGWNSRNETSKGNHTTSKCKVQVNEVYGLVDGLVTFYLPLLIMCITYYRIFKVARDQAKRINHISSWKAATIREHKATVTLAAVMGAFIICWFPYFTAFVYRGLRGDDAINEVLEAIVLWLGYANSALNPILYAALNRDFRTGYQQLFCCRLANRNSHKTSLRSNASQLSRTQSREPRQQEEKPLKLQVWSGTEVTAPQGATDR
Method in brief: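 CHO-K1 cells expressing human recombinant H2 receptor, 50 mM phosphate buffer pH 7.4; compounds incubated with 0.1 nM [125I]aminopotentidine for 120 min at 25 °C. Nonspecific binding defined with 3 μM tiotidine; specifically bound radioligand counted after filtration and washing.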

[2] = target: T2, human recombinant adrenergic α1D receptor (Homo sapiens, UniProt P25100); assay: Adrenergic α1D radioligand binding ([3H]Prozosin); conditions: compound at 1 μM
T2 construct: expressed in transfected cells; host or cells: human embryonic kidney (HEK-293) cells
T2 sequence (P25100 1-572): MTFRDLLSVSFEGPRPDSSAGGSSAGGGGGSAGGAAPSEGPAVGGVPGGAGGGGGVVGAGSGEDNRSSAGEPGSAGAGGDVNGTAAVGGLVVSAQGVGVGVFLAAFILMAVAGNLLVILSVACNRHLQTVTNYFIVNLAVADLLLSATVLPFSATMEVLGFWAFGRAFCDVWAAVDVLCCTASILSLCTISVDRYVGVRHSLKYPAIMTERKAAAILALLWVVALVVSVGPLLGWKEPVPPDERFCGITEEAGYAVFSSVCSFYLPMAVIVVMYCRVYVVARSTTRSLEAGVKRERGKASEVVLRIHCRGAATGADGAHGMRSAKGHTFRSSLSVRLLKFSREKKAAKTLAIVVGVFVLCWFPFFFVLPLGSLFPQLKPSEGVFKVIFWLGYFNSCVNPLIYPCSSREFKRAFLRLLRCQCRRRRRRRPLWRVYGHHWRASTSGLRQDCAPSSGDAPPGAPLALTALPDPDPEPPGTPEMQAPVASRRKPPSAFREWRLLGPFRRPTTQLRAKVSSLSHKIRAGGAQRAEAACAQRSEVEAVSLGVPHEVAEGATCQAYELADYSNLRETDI
Protocol: Compounds of invention were incubated with 0.6 nM [^3H]Prozosin for 60 min. at 25° C. Non-specific binding was estimated in the presence of 10 μM phentolamine. Receptor proteins were filtered and washed, the filters were then counted to determine [^3H]Prozosin specifically bound. Compounds were screened at 1 μM or lower, using 1% DMSO as vehicle. Biochemical assay results are presented as the percent inhibition of specific binding in Table 9.

[3] = target: T3, human recombinant adrenergic α2B receptor (Homo sapiens, UniProt P18089); assay: Adrenergic α2B radioligand binding ([3H]Rauwolscine); conditions: compound at 1 μM
T3 construct: expressed in transfected cells; host or cells: Chinese hamster ovary (CHO-K1) cells
T3 sequence (P18089 1-450): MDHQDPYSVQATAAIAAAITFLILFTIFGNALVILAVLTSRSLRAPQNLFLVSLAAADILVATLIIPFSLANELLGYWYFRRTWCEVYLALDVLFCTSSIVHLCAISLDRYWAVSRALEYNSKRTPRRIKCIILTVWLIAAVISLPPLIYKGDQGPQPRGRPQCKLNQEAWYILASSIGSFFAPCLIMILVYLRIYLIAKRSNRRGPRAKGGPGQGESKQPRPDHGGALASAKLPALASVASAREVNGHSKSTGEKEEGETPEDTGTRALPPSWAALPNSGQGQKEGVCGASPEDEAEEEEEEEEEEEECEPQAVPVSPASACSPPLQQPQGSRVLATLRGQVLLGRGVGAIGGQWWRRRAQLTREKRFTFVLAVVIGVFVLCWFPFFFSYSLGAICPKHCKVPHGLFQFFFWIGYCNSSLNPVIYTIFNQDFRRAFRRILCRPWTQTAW
Method in brief: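 Membranes from CHO-K1 cells expressing the receptor were incubated with 2.5 nM [3H]Rauwolscine for 60 min at 25 °C in Tris-HCl buffer pH 7.4 with MgCl2, EDTA and BSA. Non-specific binding was defined with 10 μM prazosin. Compounds were tested at ≤1 μM in 1% DMSO and read out as % inhibition of specific binding after filtration.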

[4] = target: human dopamine D2L receptor (Homo sapiens, UniProt P14416); assay: Dopamine D2L radioligand binding ([3H]Spiperone); conditions: compound at 1 μM
human dopamine D2L receptor, sequence (P14416 whole entry): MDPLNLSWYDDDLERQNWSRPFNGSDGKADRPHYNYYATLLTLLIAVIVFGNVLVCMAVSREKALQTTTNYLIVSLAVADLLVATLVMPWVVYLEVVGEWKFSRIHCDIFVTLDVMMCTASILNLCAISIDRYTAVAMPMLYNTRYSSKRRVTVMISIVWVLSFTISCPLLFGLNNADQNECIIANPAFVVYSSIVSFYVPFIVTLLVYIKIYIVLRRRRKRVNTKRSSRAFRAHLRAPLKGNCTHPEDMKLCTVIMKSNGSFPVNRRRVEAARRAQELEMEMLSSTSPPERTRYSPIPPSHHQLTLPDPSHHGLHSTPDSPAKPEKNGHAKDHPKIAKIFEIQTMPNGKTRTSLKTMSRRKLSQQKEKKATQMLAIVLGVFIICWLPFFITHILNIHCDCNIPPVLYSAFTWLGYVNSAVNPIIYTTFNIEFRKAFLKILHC
Source text: Non-specific binding was estimated in the presence of […] Haloperidol. Receptor proteins were filtered and washed, the filters were then counted to determine [^3H]Spiperone specifically bound. […] Biochemical assay results are presented as the percent inhibition of specific binding in Table 9.

[5] = target: T4, human recombinant serotonin (5-Hydroxytryptamine) 5-HT2A receptor (Homo sapiens, UniProt P28223); assay: Serotonin 5-HT2A radioligand binding ([3H]Ketanserin); conditions: for inhibition at 1 µM: read-out: Inhibition of ligand binding, Serotonin 5-HT2A (percent inhibition of specific binding), compound at 1 μM
T4 construct: expressed in transfected cells; host or cells: Chinese hamster ovary (CHO-K1) cells
T4 sequence (P28223 whole entry): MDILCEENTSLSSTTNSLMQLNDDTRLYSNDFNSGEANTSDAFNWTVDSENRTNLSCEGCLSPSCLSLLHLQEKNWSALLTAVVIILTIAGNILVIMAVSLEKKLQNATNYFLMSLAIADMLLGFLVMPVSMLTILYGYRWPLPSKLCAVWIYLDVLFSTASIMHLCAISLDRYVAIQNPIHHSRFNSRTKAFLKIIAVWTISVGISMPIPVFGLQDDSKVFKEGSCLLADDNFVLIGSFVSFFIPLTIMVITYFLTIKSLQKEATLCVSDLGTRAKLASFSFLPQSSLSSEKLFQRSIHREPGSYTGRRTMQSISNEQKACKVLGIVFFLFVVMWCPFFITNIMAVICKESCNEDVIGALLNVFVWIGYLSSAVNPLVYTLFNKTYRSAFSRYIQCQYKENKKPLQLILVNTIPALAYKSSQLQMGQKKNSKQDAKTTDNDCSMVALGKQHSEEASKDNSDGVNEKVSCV
Protocol: Compounds of the invention were incubated with 0.5 nM [^3H]Ketanserin for 60 min. at 25° C. Non-specific binding was estimated in the presence of 1 μM Mianserin. Receptor proteins were filtered and washed, the filters were then counted to determine [^3H]Ketanserin specifically bound.

[6] = target: T5, human recombinant serotonin (5-Hydroxytryptamine) 5-HT6 receptor (Homo sapiens, UniProt P50406); assay: Serotonin 5-HT6 radioligand binding ([3H]LSD); conditions: compound at 1 μM; for Inhibition of ligand binding, Serotonin 5-HT6 (percent inhibition of specific binding): 1 µM; for inhibition at 1 µM: read-out: Inhibition of ligand binding, Serotonin 5-HT6 (percent inhibition of specific binding)
T5 construct: expressed in transfected cells; host or cells: human HeLa cells
T5 sequence (P50406 whole entry): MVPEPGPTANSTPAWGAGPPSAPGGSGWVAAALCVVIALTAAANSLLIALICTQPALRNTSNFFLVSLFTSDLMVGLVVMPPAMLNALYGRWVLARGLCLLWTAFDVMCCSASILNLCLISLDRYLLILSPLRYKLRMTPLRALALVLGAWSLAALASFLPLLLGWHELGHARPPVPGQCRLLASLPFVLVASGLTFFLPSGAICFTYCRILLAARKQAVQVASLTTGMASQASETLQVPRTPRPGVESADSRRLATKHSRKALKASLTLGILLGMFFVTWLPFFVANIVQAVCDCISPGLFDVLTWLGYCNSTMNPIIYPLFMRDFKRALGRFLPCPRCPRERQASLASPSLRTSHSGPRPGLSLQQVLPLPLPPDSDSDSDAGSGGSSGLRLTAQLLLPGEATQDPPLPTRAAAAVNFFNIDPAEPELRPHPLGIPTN
Protocol: Compounds of the invention were incubated with 1.5 nM [3H]Lysergic acid diethylamide (LSD) for 120 min. at 37° C. […] Receptor proteins were filtered and washed, the filters were then counted to determine [3H]LSD specifically bound. Compounds were screened at 1 μM or lower, using 1% DMSO as vehicle. Biochemical assay results are presented as the percent inhibition of specific binding in Table 10.

[7] = target: human recombinant serotonin (5-Hydroxytryptamine) 5-HT7 receptor (Homo sapiens, UniProt P34969); assay: Serotonin 5-HT7 radioligand binding ([3H]LSD); conditions: compound at 1 μM; for Inhibition of ligand binding, Serotonin 5-HT7 (percent inhibition of specific binding): 1 µM; for inhibition at 1 µM: read-out: Inhibition of ligand binding, Serotonin 5-HT7 (percent inhibition of specific binding)
human recombinant serotonin (5-Hydroxytryptamine) 5-HT7 receptor, sequence (P34969 whole entry): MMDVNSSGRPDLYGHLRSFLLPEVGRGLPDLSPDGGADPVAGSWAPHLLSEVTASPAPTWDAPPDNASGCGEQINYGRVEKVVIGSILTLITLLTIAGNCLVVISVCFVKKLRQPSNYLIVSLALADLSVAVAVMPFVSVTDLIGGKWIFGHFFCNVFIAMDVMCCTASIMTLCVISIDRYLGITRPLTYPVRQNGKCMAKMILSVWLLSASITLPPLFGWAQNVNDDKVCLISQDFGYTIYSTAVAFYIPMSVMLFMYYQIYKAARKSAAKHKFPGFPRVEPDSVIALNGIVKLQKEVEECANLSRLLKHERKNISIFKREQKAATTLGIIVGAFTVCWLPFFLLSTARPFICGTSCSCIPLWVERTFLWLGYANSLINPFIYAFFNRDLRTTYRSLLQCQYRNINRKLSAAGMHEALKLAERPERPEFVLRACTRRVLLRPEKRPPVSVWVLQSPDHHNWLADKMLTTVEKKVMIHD
Source text: Receptor proteins were filtered and washed, the filters were then counted to determine [^3H]LSD specifically bound.

[8] = read-out: Inhibition of ligand binding, Adrenergic α1D (percent inhibition of specific binding)
[9] = […] [3H]Rauwolscine, read-out: Inhibition of ligand binding, Adrenergic α2B (percent inhibition of specific binding)
[10] = […] [3H]Spiperone, read-out: Inhibition of ligand binding, Dopamine D2L (percent inhibition of specific binding)

Compound | inhibition at 1 µM [1] [%] | inhibition at 1 µM ([2]; percent inhibition of specific binding, read-out: Inhibition of ligand binding, Adrenergic α1D) [%] | inhibition at 1 µM ([3]; percent inhibition of specific binding, read-out: Inhibition of ligand binding, Adrenergic α2B) [%] | Inhibition of ligand binding, Dopamine D2L ([4]; percent inhibition of specific binding, 1 µM) [%] | inhibition at 1 µM ([4]; percent inhibition of specific binding, read-out: Inhibition of ligand binding, Dopamine D2L) [%] | Inhibition of ligand binding, Serotonin 5-HT2A (percent inhibition of specific binding) ([5]; compound at 1 μM, 1 µM) [%] | inhibition at 1 µM [5] [%] | Inhibition of ligand binding, Serotonin 5-HT6 (percent inhibition of specific binding) [6] | inhibition at 1 µM [6] [%] | Inhibition of ligand binding, Serotonin 5-HT7 (percent inhibition of specific binding) [7] [%] | inhibition at 1 µM [7] [%] | inhibition at 1 µM [2, 8] [%] | inhibition at 1 µM [3, 9] [%] | Inhibition of ligand binding, Dopamine D2L (percent inhibition of specific binding) ([4]; […] [3H]Spiperone) [%] | inhibition at 1 µM [4, 10] [%]
CN1CCc2c(c3cc(Cl)ccc3n2C/C(=C/CCO)c2ccc(F)cc2)C1 [Compound No. 349, (E)-5-(8-chloro-2-methyl-3,4-dihydro-1H-pyrido[4,3-b]indol-5(2H)-yl)-4-(4-fluorophenyl)pent-3-en-1-ol] | 84 | 60 | 102 | 46 | 34 | 100 | 97 | 103% | 102 | 100 | 93 |  |  |  | 
CCOC(=O)/C=C(/Cn1c2c(c3cc(C)ccc31)CN(C)CC2)c1ccc(F)cc1 [Compound No. 350, (E)-ethyl 4-(2,8-dimethyl-3,4-dihydro-1H-pyrido[4,3-b]indol-5(2H)-yl)-3-(4-fluorophenyl)but-2-enoate] | 93 |  |  |  |  |  | 100 |  | 103 |  | 71 | 85 | 107 | 21 | 12
CCC/C=C(/Cn1c2c(c3cc(Cl)ccc31)CN(C)CC2)c1ccc(F)cc1 [Compound No. 351, (E)-8-chloro-5-(2-(4-fluorophenyl)hex-2-enyl)-2-methyl-2,3,4,5-tetrahydro-1H-pyrido[4,3-b]indole] | 100 |  |  |  |  |  | 100 |  | 103 |  | 90 | 45 | 99 | 80 | 70
Cc1ccc2c(c1)c1c(n2C/C(=C/C(=O)O)c2ccc(F)cc2)CCN(C)C1 [Compound No. 352, (E)-4-(2,8-dimethyl-3,4-dihydro-1H-pyrido[4,3-b]indol-5(2H)-yl)-3-(4-fluorophenyl)but-2-enoic acid] | 15 |  |  |  |  |  | 84 |  | 32 |  | 52 | 11 | 47 |  | 0
Cc1ccc2c(c1)c1c(n2C#Cc2ccc(C)nc2)CCN(C)C1 [Compound No. 476, 2,8-dimethyl-5-((6-methylpyridin-3-yl)ethynyl)-2,3,4,5-tetrahydro-1H-pyrido[4,3-b]indole] | 88 |  |  |  |  |  | 100 | 64% and 86% |  | 92 | 90 | 95 | 87 |  | 19
COc1ccc(C#Cn2c3c(c4cc(Cl)ccc42)CN(C)CC3)cc1F [Compound No. 477, 8-chloro-5-((3-fluoro-4-methoxyphenyl)ethynyl)-2-methyl-2,3,4,5-tetrahydro-1H-pyrido[4,3-b]indole] | 97 |  |  |  |  |  | 95 |  | 89 |  | 65 | 79 | 107 |  | 25
Cc1ccc2c(c1)c1c(n2C#Cc2ccc(F)cc2)CCN(C)C1 [Compound No. 478, 5-((4-fluorophenyl)ethynyl)-2,8-dimethyl-2,3,4,5-tetrahydro-1H-pyrido[4,3-b]indole] | 94 |  |  |  |  |  | 99 |  | 97 |  | 96 | 92 | 106 |  | 89
COC(=O)c1ccc2c(c1)c1c(n2C#Cc2ccc(F)cc2)CCN(C)C1 [Compound No. 479, methyl 5-((4-fluorophenyl)ethynyl)-2-methyl-2,3,4,5-tetrahydro-1H-pyrido[4,3-b]indole-8-carboxylate] | 51 |  |  |  |  |  | 78 |  | 91 |  | 17 | 55 | 37 |  | 72
CN1CCc2c(c3cc(Cl)ccc3n2C#Cc2ccc(Cl)cc2)C1 [Compound No. 480, 8-chloro-5-((4-chlorophenyl)ethynyl)-2-methyl-2,3,4,5-tetrahydro-1H-pyrido[4,3-b]indole] | 93 |  |  |  |  |  | 98 |  | 67 |  | 84 | 68 | 100 |  | 18
Cc1ccc2c(c1)c1c(n2C#Cc2ccc(Cl)cc2)CCN(C)C1 [Compound No. 481, 5-((4-chlorophenyl)ethynyl)-2,8-dimethyl-2,3,4,5-tetrahydro-1H-pyrido[4,3-b]indole] | 97 |  |  |  |  |  | 101 |  | 87 |  | 84 | 77 | 98 |  | 24
CN1CCc2c(c3cc(C(=O)O)ccc3n2C#Cc2ccc(F)cc2)C1 [Compound No. 482, 5-((4-fluorophenyl)ethynyl)-2-methyl-2,3,4,5-tetrahydro-1H-pyrido[4,3-b]indole-8-carboxylic acid] | -3 |  |  |  |  |  | -8 |  | 4 |  | 22 | 21 | 6 |  | -2
